Earlier results in US20220162327A1, “ANTI-CCR5 AGENTS AND METHODS OF TREATMENT THAT BLOCK CANCER METASTASIS OR ENHANCE CELL DEATH INDUCED BY DNA DAMAGING CHEMOTHERAPY” (CytoDyn Inc., priority 2019, published 2022).

Tests used:
CCL5 = settings: human colorectal cancer liver metastasis; cited from earlier work
CCR5 [1] = biological target: T1, CCR5 (Homo sapiens, UniProt P51681); settings: activated human T cells, cited from earlier work
CCR5 [2] = biological target: T1, CCR5; set-up: endogenous in cells; host or cells: CD4+ T cells; settings: cited from earlier work
[3] = test system: breast cancer tumor model; settings: cited from earlier work

T1 sequence (P51681 whole entry): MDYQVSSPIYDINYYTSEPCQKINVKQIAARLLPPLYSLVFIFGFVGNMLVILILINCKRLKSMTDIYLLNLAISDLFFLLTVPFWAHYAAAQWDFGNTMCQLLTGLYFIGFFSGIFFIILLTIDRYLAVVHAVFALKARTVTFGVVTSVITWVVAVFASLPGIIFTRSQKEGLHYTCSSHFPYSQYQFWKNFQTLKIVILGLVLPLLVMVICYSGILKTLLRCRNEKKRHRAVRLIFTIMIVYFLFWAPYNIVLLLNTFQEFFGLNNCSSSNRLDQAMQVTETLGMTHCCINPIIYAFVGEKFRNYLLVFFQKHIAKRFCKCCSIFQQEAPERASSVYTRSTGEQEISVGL

Row | Compound | effect on tumor-associated macrophages and tumor cells (CCL5) | production of TNF-α and IFN-γ (CCR5 [1]; high doses) | CCR5 and CCR2 internalization induced by CCL5 and CCL2 (CCR5 [1]) | T cell chemotactic activities toward cognate ligands (CCR5 [1]) | cell killing mediated by DNA-damaging chemotherapeutic agents (CCR5 [2]) | lung metastases [3]
1 | maraviroc | led to repolarization of tumor-associated macrophages and tumor cell death | tends to decrease production of TNF-α and IFN-γ | can block CCR5 and CCR2 internalization processes induced by CCL5 and CCL2 | inhibit T cell chemotactic activities | dramatically enhanced cell killing | effectively blocked lung metastases
2 | COC[C@@H](c1ccc(C(F)(F)F)cc1)N1CCN(C2(C)CCN(C(=O)c3c(C)ncnc3C)CC2)C[C@@H]1C [vicriviroc] | – | – | – | – | dramatically enhanced cell killing | –
